IC50 data for 12 compounds are collected here from patent US12338256B2, “Aza-tetracyclic oxazepine compounds and uses thereof” (Genentech, Inc., priority 2022, dated 2025).

In general, IC50 refers to the point on the concentration scale where inhibition reaches its midpoint.

Type in all cases: cell-based
Assay [1] has as its system H1975 (KRAS wild type human lung adenocarcinoma cell line). Put plainly: KRAS 3D-Cell Proliferation Assay, H1975 (Example 503). Particulars: H1975 3D culture, 7 days, CellTiter-Glo 3D, read-out: Prolif H1975 3D ATP IC50. In short, it runs like this: (§1)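 Cells grown in 3D in ultra-low attachment plates (RPMI-1640 with 10% FBS and 2 mM L-glutamine) received compound dilution series after overnight attachment, at 0.3% DMSO final, for 7 days at 37° C. ATP luminescence (CellTiter-Glo 3D) normalized to DMSO and 1 μM staurosporine; IC50 from 4-parameter Hill fit.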
Background: ATP-based viability assays read luminescence as a measure of living cells.

For assay [2], the system named is AsPC-1 (homozygous mutant KRAS G12D human pancreatic cell line). Put plainly: KRAS 3D-Cell Proliferation Assay, AsPC-1 (Example 503). Particulars: AsPC-1 3D culture, 7 days, CellTiter-Glo 3D, read-out: Prolif AsPC-1 3D ATP IC50. How it is done: Example 503: KRAS 3D-Cell Proliferation Assays. Cellular potencies of compounds are assessed by evaluating inhibition of proliferation in 3D cultures of homozygous mutant KRAS G12D human pancreatic cell lines (AsPC-1 and HPAC) as compared to a KRAS wild type human lung adenocarcinoma cell line (PC-9 and/or H1975). Cells are seeded into 384-well black round-bottom, ultra-low attachment assay plates in 50 uL cell growth medium (RPMI-1640 with 10% fetal bovine serum and 2 mM L-glutamine). After overnight incubation at 37° C. and 5% CO2, compounds solubilized in DMSO are added as dilution series to the wells in a total volume of 150 nL (0.3% DMSO final). The cells are incubated for 7 days at 37° C. and 5% CO2. Cell proliferation is quantitated by addition of 40 uL/well of CellTiter-GloÒ 3D (Promega), and the well contents are mixed 20× at high speed using liquid handling automation workstation (Bravo with 384-well head) and centrifuged at 1500 rpm for 2 minutes to eliminate bubbles. This reagent in combination with mechanical disruption releases the cellular ATP to promote activity in a luciferase-based enzyme/substrate chemiluminescent detection system. After a 30-minute incubation under ambient conditions with shaking and an additional 10 minutes without shaking, the luminescence is read on a plate reader (e.g., EnVision [PerkinElmer]). The results are normalized to percent inhibition based on the following control samples: DMSO (0% inhibition) and 1 μM staurosporine (100% inhibition). The normalized luminescence results are plotted against compound concentration, and the data are fit to a 4-parameter Hill equation to determine the IC50 values.

Assay [3] concerns HPAC (homozygous mutant KRAS G12D human pancreatic cell line). Nature of the assay: KRAS 3D-Cell Proliferation Assay, HPAC (Example 503). The conditions noted are these: HPAC 3D culture, 7 days, CellTiter-Glo 3D, read-out: Prolif HPAC 3D ATP IC50. The essentials: as §1

Where two headings read alike, the source gives them in different places.

For `Cc1cc(N)cc(-c2nc3c4c(nc(OC[C@]56CCCN5CC(F)(F)C6)nc4c2F)N2C[C@H]4CC[C@H](N4)[C@H]2[C@H](C)O3)c1C(F)(F)F` [Compound 69, 3-((5S,5aS,6S,9R)-12-(((R)-2,2-Difluorotetrahydro-1H-pyrrolizin-7a(5H)-yl)methoxy)-1-fluoro-5-methyl-5a,6,7,8,9,10-hexahydro-5H-4-oxa-3,10a,11,13,14-pentaaza-6,9-methanonaphtho[1,8-ab]heptalen-2-yl)-5-methyl-4-(trifluoromethyl)aniline], the IC50 in assay [1] (Homo sapiens, NCI-H1975, 168 h) worked out at 1280 nM; in assay [2] (Homo sapiens, ASPC1, 168 h), 21.3 nM; in assay [3] (Homo sapiens, HPAC, 168 h), 6.42 nM.

For the compound `Cc1nc(N)c(F)c(-c2nc3c4c(nc(OC[C@@]56CCCN5CC5(CC5(F)F)C6)nc4c2F)N2C[C@H]4CC[C@H](N4)[C@H]2[C@H](C(F)(F)F)O3)c1C(F)(F)F` (stereo partly drawn) [Compound 257, 4-((5R,5aS,6S,9R)-12-(((7a′S)-2,2-Difluorodihydro-1′H,3′H-spiro[cyclopropane-1,2′-pyrrolizin]-7a′(5′H)-yl)methoxy)-1-fluoro-5-(trifluoromethyl)-5a,6,7,8,9,10-hexahydro-5H-4-oxa-3,10a,11,13,14-pentaaza[6,9]methanonaphtho[1,8-ab]heptalen-2-yl)-3-fluoro-6-methyl-5-(trifluoromethyl)pyridin-2-amine], the IC50 in assay [1] (Homo sapiens, NCI-H1975, 168 h) was 5020 nM; in assay [2] (Homo sapiens, ASPC1, 168 h) it was 8 nM; in assay [3] (Homo sapiens, HPAC, 168 h), 8.37 nM.

As for `Cc1c(F)c(N)cc(-c2nc3c4c(nc(OC[C@@]56CCCN5C[C@H](F)C6)nc4c2F)N2C[C@H]4CC[C@H](N4)[C@H]2[C@H](C)O3)c1CC(F)F` [Compound 75, 4-(2,2-Difluoroethyl)-2-fluoro-5-((5S,5aS,6S,9R)-1-fluoro-12-(((2R,7aS)-2-fluorotetrahydro-1H-pyrrolizin-7a(5H)-yl)methoxy)-5-methyl-5a,6,7,8,9,10-hexahydro-5H-4-oxa-3,10a,11,13,14-pentaaza-6,9-methanonaphtho[1,8-ab]heptalen-2-yl)-3-methylaniline], the IC50 in assay [1] (Homo sapiens, NCI-H1975, 168 h) is 797 nM; in assay [2] (Homo sapiens, ASPC1, 168 h), 5.2 nM; in assay [3] (Homo sapiens, HPAC, 168 h), 2.77 nM.

As for `Cc1nc(N)cc(-c2nc3c4c(nc(OC[C@@]56CCCN5C[C@H](F)C6)nc4c2F)N2C[C@H]4CC[C@H](N4)[C@H]2[C@H](C(F)(F)F)O3)c1C(F)(F)F` [Compound 242, 4-((5R,5aS,6S,9R)-1-Fluoro-12-(((2R,7aS)-2-fluorotetrahydro-1H-pyrrolizin-7a(5H)-yl)methoxy)-5-(trifluoromethyl)-5a,6,7,8,9,10-hexahydro-5H-4-oxa-3,10a,11,13,14-pentaaza-6,9-methanonaphtho[1,8-ab]heptalen-2-yl)-6-methyl-5-(trifluoromethyl)pyridin-2-amine], the half-maximal inhibitory concentration (IC50) in assay [1] (Homo sapiens, NCI-H1975, 168 h) turned out to be 1040 nM; in assay [2] (Homo sapiens, ASPC1, 168 h), 7.8 nM; in assay [3] (Homo sapiens, HPAC, 168 h), 5.11 nM.

As to `Cc1nc(N)cc(-c2nc3c4c(nc(OC[C@@]56CCCN5C[C@H](F)C6)nc4c2F)N2C[C@H]4CC[C@H](N4)[C@H]2[C@H](C)O3)c1C(F)(F)F` [Compound 215, 4-((5S,5aS,6S,9R)-1-Fluoro-12-(((2R,7aS)-2-fluorotetrahydro-1H-pyrrolizin-7°(5H)-yl)methoxy)-5-methyl-5°,6,7,8,9,10-hexahydro-5H-4-oxa-3,10°,11,13,14-pentaaza-6,9-methanonaphtho[1,8-ab]heptalen-2-yl)-6-methyl-5-(trifluoromethyl)pyridin-2-amine], the IC50 was 831 nM in assay [1] (Homo sapiens, NCI-H1975, 168 h); 7.8 nM in assay [2] (Homo sapiens, ASPC1, 168 h); 2.5 nM in assay [3] (Homo sapiens, HPAC, 168 h).

Turning to `Cc1cc(N)c(F)c(-c2nc3c4c(nc(OCC5(CN6CCOCC6)CC5)nc4c2F)N2C[C@H]4CC[C@H](N4)[C@H]2[C@H](C)O3)c1C(F)(F)F` [Compound 226, 2-Fluoro-3-((5S,5aS,6S,9R)-1-fluoro-5-methyl-12-((1-(morpholinomethyl)cyclopropyl)methoxy)-5a,6,7,8,9,10-hexahydro-5H-4-oxa-3,10a,11,13,14-pentaaza-6,9-methanonaphtho[1,8-ab]heptalene-2-yl)-5-methyl-4-(trifluoromethyl)aniline], the IC50 is 568 nM in assay [1] (Homo sapiens, NCI-H1975, 168 h); 1.2 nM in assay [2] (Homo sapiens, ASPC1, 168 h); 0.86 nM in assay [3] (Homo sapiens, HPAC, 168 h).

Turning to `Cc1cc2[nH]ncc2c(-c2nc3c4c(nc(OC[C@@]56CCCN5C[C@H](F)C6)nc4c2F)N2C[C@H]4CC[C@H](N4)[C@H]2[C@H](C)O3)c1Cl` [Compound 176, (5S,5aS,6S,9R)-2-(5-Chloro-6-methyl-1H-indazol-4-yl)-1-fluoro-12-(((2R,7aS)-2-fluorotetrahydro-1H-pyrrolizin-7a(5H)-yl)methoxy)-5-methyl-5a,6,7,8,9,10-hexahydro-5H-4-oxa-3,10a,11,13,14-pentaaza-6,9-methanonaphtho[1,8-ab]heptalene], the IC50 in assay [1] (Homo sapiens, NCI-H1975, 168 h) came out at 15200 nM; in assay [2] (Homo sapiens, ASPC1, 168 h), 200 nM; in assay [3] (Homo sapiens, HPAC, 168 h), 168 nM.

For `Cc1cc(N)c(F)c(-c2nc3c4c(nc(OC[C@@]56CCCN5C[C@H](F)C6)nc4c2F)N2C[C@H]4CC[C@H](N4)[C@H]2[C@H](C)O3)c1CC(F)(F)F` [Compound 182, 2-Fluoro-3-((5S,5aS,6S,9R)-1-fluoro-12-(((2R,7aS)-2-fluorotetrahydro-1H-pyrrolizin-7°(5H)-yl)methoxy)-5-methyl-5°,6,7,8,9,10-hexahydro-5H-4-oxa-3,10°,11,13,14-pentaaza-6,9-methanonaphtho[1,8-ab]heptalen-2-yl)-5-methyl-4-(2,2,2-trifluoroethyl)aniline], the IC50 in assay [1] (Homo sapiens, NCI-H1975, 168 h) was 1910 nM; in assay [2] (Homo sapiens, ASPC1, 168 h), 8.3 nM; in assay [3] (Homo sapiens, HPAC, 168 h) it was 4.12 nM.

As to `Cc1c(F)c(N)cc(-c2nc3c4c(nc(OCC5(CN6CC7(COC7)C6)CC5)nc4c2F)N2C[C@H]4CC[C@H](N4)[C@H]2[C@H](C)O3)c1C(F)(F)F` [Compound 174, 5-((5S,5aS,6S,9R)-12-((1-((2-Oxa-6-azaspiro[3.3]heptan-6-yl)methyl)cyclopropyl)methoxy)-1-fluoro-5-methyl-5a,6,7,8,9,10-hexahydro-5H-4-oxa-3,10a,11,13,14-pentaaza[6,9]methanonaphtho[1,8-ab]heptalene-2-yl)-2-fluoro-3-methyl-4-(trifluoromethyl)aniline], the IC50 is 227 nM in assay [1] (Homo sapiens, NCI-H1975, 168 h); 1.3 nM in assay [2] (Homo sapiens, ASPC1, 168 h); 3.86 nM in assay [3] (Homo sapiens, HPAC, 168 h).

`Cc1c(F)c(N)cc(-c2nc3c4c(nc(OC[C@]5(CN6CC7(COC7)C6)CC5(F)F)nc4c2F)N2C[C@H]4CC[C@H](N4)[C@H]2[C@H](C)O3)c1C(F)(F)F` (mixture of isomers) [165 a]: the values for the IC50 in assay [1], in assay [2] and in assay [3] were 374 nM, 0.6 nM and 0.63 nM, respectively.

In the case of `Cc1c(F)c(N)cc(-c2nc3c4c(nc(OCC5(CN6CCOCC6)CC5)nc4c2F)N2C[C@H]4CC[C@H](N4)[C@H]2[C@H](C)O3)c1C(F)(F)F` [Compound 118, 2-Fluoro-5-((5S,5aS,6S,9R)-1-fluoro-5-methyl-12-((1-(morpholinomethyl)cyclopropyl)methoxy)-5a,6,7,8,9,10-hexahydro-5H-4-oxa-3,10a,11,13,14-pentaaza-6,9-methanonaphtho[1,8-ab]heptalen-2-yl)-3-methyl-4-(trifluoromethyl)aniline], the IC50 in assay [1] (Homo sapiens, NCI-H1975, 168 h) was found to be 519 nM; in assay [2] (Homo sapiens, ASPC1, 168 h) it was 0.6 nM; in assay [3] (Homo sapiens, HPAC, 168 h) it was 0.43 nM.

With `Cc1c(F)c(N)cc(-c2nc3c4c(nc(OC[C@@H]5CC[C@H]6COCCN65)nc4c2F)N2C[C@H]4CC[C@H](N4)[C@H]2[C@H](C(F)(F)F)O3)c1C(F)(F)F` [Compound 245, 2-Fluoro-5-((5R,5aS,6S,9R)-1-fluoro-12-(((6S,8aS)-hexahydro-1H-pyrrolo[2,1-c][1,4]oxazin-6-yl)methoxy)-5-(trifluoromethyl)-5a,6,7,8,9,10-hexahydro-5H-4-oxa-3,10a,11,13,14-pentaaza-6,9-methanonaphtho[1,8-ab]heptalene-2-yl)-3-methyl-4-(trifluoromethyl)aniline], the IC50 was 739 nM in assay [1] (Homo sapiens, NCI-H1975, 168 h); 3.6 nM in assay [2] (Homo sapiens, ASPC1, 168 h); 4.13 nM in assay [3] (Homo sapiens, HPAC, 168 h).
